Measured values as given in US8039488B2, “Methods and compositions for inhibition of angiogenesis” (Children's Medical Center Corporation, priority 1996, dated 2011).

Assays:
[1] = tested on: bFGF induced corneal neovascularization; experiment: Rabbit cornea angiogenesis assay; type: in vivo
Procedure: Pellets for implantation into rabbit corneas were made by mixing 110 μl of saline containing 12 μg of recombinant bFGF (Takeda Pharmaceuticals-Japan) with 40 mg of sucralfate (Bukh Meditec-Denmark); this suspension was added to 80 μl of 12% hydron (Interferon Sciences) in ethanol. 10 μl aliquots of this mixture was then pipetted onto Teflon pegs and allowed to dry producing approximately 17 pellets. A pellet was implanted into corneal micropockets of each eye of an anesthetized female New Zealand white rabbit, 2 mm from the limbus followed by topical application of erythromycin ointment onto the surface of the cornea. The animals were fed daily from 2 days post-implantation by gastric lavage with either drug suspended in 0.5% carboxymethyl cellulose or 0.5% carboxymethyl cellulose alone. Thalidomide was purchased from Andrulus Pharmaceutical (Maryland) and the EM-12 and Supidimide were kindly provided by Grunenthal GMBH (Germany). The animals were examined with a slit lamp every other day in a masked manner by the same corneal specialist. The area of corneal neovascularization was determined by measuring with a reticule the vessel length (L) from the limbus and the number of clock hours (C) of limbus involved. A formula was used to determine the area of a circular band segment: C/12*3.1416 [r^2−(r−L)^2] where r=6 mm the measured radius of the rabbit cornea.
Pellets containing bFGF and sucralfate were implanted into micropockets of both corneas of rabbits according to Example II. Vessel ingrowth into clear cornea from the limbus was first noted on day 2 and treatments (200 mg/kg orally) were begun on this day. The area of corneal neovascularization was measured from day 4 through day 12. Day 8 measurements were used for comparison between groups. […] Statistical analysis was performed with ANOVA with ranked data to account for interexperimental variation and to guard against a non-normal distribution of data (i.e. outliers) by utilizing a nonparametric method.

[2] = tested on: chick embryo chorioallantoic membrane; experiment: Chick embryo chorioallantoic membrane (CAM) assay; type: in vivo; settings: examined 48 hours after implantation
From the text: The chick embryo chorioallantoic membrane assay described by Crum et al., Science 230:1375 et seq. […] See also, U.S. Pat. No. 5,001,116, hereby incorporated by reference, which describes the CAM assay at col. 7 of the patent. Briefly, fertilized chick embryos were removed from their shell on day 3 or 4, and a methylcellulose disc containing the compound was implanted on the chorioallantoic membrane.

**Q.** How did the “inhibition of angiogenesis in the rabbit cornea assay” value ([1]; 200 mg/kg) turn out when O=C(O)CCC(C(=O)O)N1C(=O)c2ccccc2C1=O (racemic) [Phthaloyl glutamic acid, N-phthaloyl-DL-glutamic acid] was run?
**A.** The value was 29%.

**Q.** What about the “inhibitory activity on corneal neovascularization, in words” value ([1]; 200 mg/kg orally) of the same molecule?
**A.** Its value is “weaker inhibitory effects than thalidomide”.

**Q.** And the “CAM assay result (avascular zone around the methylcellulose disc)” value [2]?
**A.** Its value is “avascular zone with a mild scar”.
